# Literature values as cited in US20140081110A1, “ELECTROPHYSIOLOGICAL DIAGNOSIS AND TREATMENT FOR ASTHMA” (University of Liverpool, priority 2011, published 2014).
# Tested on: normal airway
# Details: UK guidance on asthma (British Guideline on the Management of Asthma, Revised January 2012)
smiles,measurement,value
CC(=O)OC(C)C[N+](C)(C)C (stereo not shown) [methacholine],methacholine dose required to reduce the Forced Expiratory Volume in 1 Second (FEV1) by 20%,> 8 mg/mL
